Measured values: PMC12347391, “Sulforaphane-Rich Broccoli Sprout Extract Promotes Hair Regrowth in an Androgenetic Alopecia Mouse Model via Enhanced Dihydrotestosterone Metabolism” (International Journal of Molecular Sciences, 2025)
Like-named read-outs stand apart in the source and are kept apart here.

Experiments:
HDP cells [1] = test: In vitro scratch wound recovery assay; type: cell-based, human
Protocol: No. BA-045855; Sartorius AG, […], Germany). […] Sartorius AG), following the manufacturer's instructions. Detached cells were removed by washing twice with PBS (pH 7.4). […] All treatments were performed in triplicate, including a vehicle control. […] Wound closure was quantified using the Incucyte® Scratch Wound Analysis Software Module, which calculates relative wound density (%) by comparing cell density within the wound area to that of the surrounding monolayer, providing an objective measure of cell migration and proliferation over time.

[2] = in humans; cited from earlier work
[3] = in water at 25 °C; cited from earlier work
[4] = system: CCD-986sk dermal fibroblasts; conditions: human, 24 h
[5] = after 5 weeks, cited from earlier work
[6] = pH 1.2 (mimics gastric fluid), within 1 h; cited from earlier work
HDP cells [7] = test: In vitro cell proliferation assay (WST-1); type: cell-based, human; conditions: between 0.5 and 5 µg/mL
HDP cells [8] = test: Boyden chamber migration assay; type: cell-based, human; conditions: 24 h, BSE based on SFN equivalence
Protocol: To evaluate the migratory ability of HDP cells, a Boyden chamber assay was performed. HDP cells were serum-starved for 24 h in a medium containing 0.5% (v/v) FCS. […] The lower chambers were filled with 600 µL of HDP medium supplemented with 4% FCS, 4% bovine pituitary extract, 1 ng/L recombinant human fibroblast growth factor, and 5 µg/L recombinant human insulin. After a 24 h incubation period to allow for migration, cells were fixed with 4% paraformaldehyde (BL539A, Biosharp, Hefei, Anhui, China) for 15 min and stained using Crystal Violet Staining Solution (C0121, Beyotime, Shanghai, China) for 10 min. Non-migrated cells on the upper side of the insert membrane were carefully removed using a cotton swab. To quantify migrated cells, the basal chambers were filled with 500 µL of calcein-AM-based cell dissociation solution. Cells were incubated for 1 h at 37 °C, and the fluorescence of the dissociated calcein-AM was measured using a microplate reader at an excitation wavelength of 485 nm and an emission wavelength of 520 nm.

in vivo = conditions: Sprague-Dawley, rat, plasma, rats; for AUC(0-inf): read-out: AUCinf of SFN; for AUC(0-t): read-out: AUClast of SFN; for half-life: read-out: T1/2 of SFN (converted)
Protocol: To evaluate absolute oral bioavailability, an intravenous (IV) bolus dose of SFN (2 mg/kg, dissolved in normal saline, 200 µL) was administered via a cannulated femoral vein. Blood samples (300 µL) were collected from the femoral artery at predetermined time points: 0.17, 0.5, 1, 1.5, 2, 4, 8, and 12 h post-IV dosing, and 0.17, 0.5, 1, 2, 4, 6, 8, and 12 h post-oral dosing. Samples were immediately centrifuged at 13,000× g for 5 min at 4 °C to separate plasma, which was stored at −80 °C until further analysis.
The plasma concentrations of SFN were determined using liquid chromatography–tandem mass spectrometry (LC–MS/MS) following protein precipitation and solid-phase extraction. Briefly, 180 µL of plasma was spiked with 10 µL of SFN working solution (0.2–20 µg/mL) and 10 µL of internal standard (IS), phenethyl isothiocyanate (PHE, 5 µg/mL in acetonitrile). Proteins were precipitated by adding 200 µL of a solvent mixture consisting of 25% acetonitrile, 25% water, and 50% ethanol, followed by centrifugation at 18,340× g for 5 min at 4 °C. The resulting 400 µL supernatant was subjected to SPE using Oasis® HLB 96-well µElution plates (2 mg sorbent per well, 30 µm particle size; Waters Corporation, Milford, MA, USA), preconditioned with 200 µL each of methanol and water. After sample loading, the wells were washed sequentially with 200 µL of water and 50% aqueous methanol, and analytes were eluted with 400 µL of acetonitrile (2 × 200 µL).
Chromatographic separation was achieved on an ACQUITY UPLC system (Waters Corporation) using a BEH C18 column (50 × 2.1 mm, 1.7 µm). The mobile phase consisted of 10 mM ammonium acetate in water (30%, solvent A) and 0.1% formic acid in acetonitrile (70%, solvent B), delivered at a flow rate of 0.6 mL/min. The column temperature was maintained at 50 °C, and the injection volume was 10 µL.
Detection was performed using a Xevo TQ-S triple quadrupole mass spectrometer (Waters Corporation) equipped with an electrospray ionization source in the positive-ion mode. Multiple reaction monitoring (MRM) transitions were set at m/z 178.0 → 114.0 for SFN (cone voltage: 24 V; collision energy: 30 eV) and m/z 164.0 → 130.0 for PHE (cone voltage: 23 V; collision energy: 22 eV). The instrument settings included a capillary voltage of 3.0 kV, source temperature of 120 °C, desolvation temperature of 500 °C, desolvation gas (nitrogen) flow of 800 L/h, and cone gas (nitrogen) flow of 50 L/h. Argon was used as the collision gas. All the MRM parameters were optimized using the software IntelliStart^TM (Waters Corporation).
The calibration curve for SFN was linear over the range of 0.5–1000 ng/mL, with a lower limit of detection (LOD) of 0.5 ng/mL. The overall recovery of SFN using the described extraction method was 90 ± 3%, when compared to the direct analysis of the standard diluted in methanol.

HaCaT keratinocytes = conditions: human, 24 h

Cmax (in vivo; SFN IV 2 mg/kg): 339 ± 50 ng/mL
AUC(0-inf) (in vivo; SFN IV 2 mg/kg): 421 ± 67 ng·h/mL
AUC(0-t) (in vivo; SFN IV 2 mg/kg): 403 ± 52 ng·h/mL
half-life (in vivo; SFN IV 2 mg/kg): 7 ± 3 h
Cmax (in vivo; SFN oral 5 mg/kg): 155 ± 17 ng/mL
Tmax (in vivo; SFN oral 5 mg/kg): 2 h
bioavailability (in vivo; SFN oral 5 mg/kg, vs SFN IV): 87 ± 5%
AUC(0-inf) (in vivo; SFN oral 5 mg/kg): 934 ± 41 ng·h/mL
AUC(0-t) (in vivo; SFN oral 5 mg/kg): 874 ± 46 ng·h/mL
half-life (in vivo; SFN oral 5 mg/kg): 5 h
Structure (SMILES): C[S+]([O-])CCCCN=C=S (stereo not drawn) [SFN, Sulforaphane]
scratch wound closure (HDP cells [1]; 1 µg/mL, 16 h): 71.5%
scratch wound closure (HDP cells [1]; 1 µg/mL, 20 h): 74.9%
scratch wound closure (HDP cells [1]; 1 µg/mL, 24 h): 94.8%
scratch wound closure (HDP cells [1]; 25 µg/mL, 16 h): significant cell detachment and reduced recovery
scratch wound closure (HDP cells [1]; 25 µg/mL, 20 h): remaining below the control
biological half-life [2]: approximately 2.2 h
aqueous solubility [3]: ~ 1.85 mg/mL
concentration at which proliferation decreased (dose-dependent cytotoxicity) [4]: ≥ 5000 ng/mL
residual SFN content ([5]; stored at 4 °C): 95.18 ± 0.20%
residual SFN content ([5]; stored at 26 °C): 78.45 ± 0.28%
residual SFN content ([5]; stored at −20 °C): 96.56 ± 0.15%
fraction degraded [6]: ~90%
relative cell proliferation (HDP cells [7]): approximately 200%
relative HDP cell migration (untreated control = 100%) (HDP cells [8]; 0.1 µg/mL): 141%
relative HDP cell migration (untreated control = 100%) (HDP cells [8]; 1 µg/mL): 150%
relative HDP cell migration (untreated control = 100%) (HDP cells [8]; 25 µg/mL): 16.7%
concentration above which cytotoxic effects (decreased cell viability) were seen (HaCaT keratinocytes): above 10 µg/mL
